# In patent US10485794B2, “Treatment method by combined use of MDM2 inhibitor and BTK inhibitor” (DAIICHI SANKYO COMPANY, LIMITED, priority 2015, dated 2019):
# How the values were obtained:
# [1] = system: ABC-type DLBCL cell line TMD-8 cells; assay: In vivo effect on subcutaneously transplanted TMD-8 tumor in mice (Test Example 1); parameters: species or system NOD-SCID mouse; details: for TGI (%): 29 days after tumor inoculation
# Experimental: ABC-type DLBCL cell line TMD-8 cells were suspended to 1×10^8 cells/mL using phosphate-buffered saline. 0.1 mL of the prepared cell suspension was subcutaneously transplanted to each NOD-SCID mouse (female, 6 weeks old). […] The major axis (mm) and minor axis (mm) of tumor were measured over time using an electronic digital caliper. […] Also, the body weights were measured over time using an automatic balance for small animals, and body weight change % was calculated according to calculation formula (5) shown below to study the influence of drug administration on the body weights. In addition, the results of the last body weight measurement were used in dose calculation. […] A: Average tumor volume of the compound-administered group on the date of assessment (*) B: Average tumor volume of the untreated control group on the date of assessment (*) *: The tumor volume was calculated according to ½×[Major axis of tumor]×[Minor axis of tumor]×[Minor axis of tumor].
# [2] = Body weight change of TMD-8 tumor-bearing mice (Test Example 1); assay type: in vivo, NOD-SCID mouse
# Experimental: ABC-type DLBCL cell line TMD-8 cells were suspended to 1×10^8 cells/mL using phosphate-buffered saline. 0.1 mL of the prepared cell suspension was subcutaneously transplanted to each NOD-SCID mouse (female, 6 weeks old). […] For a combined use group, 25 mg/kg or 50 mg/kg Compound A and 100 mg/kg or 200 mg/kg ibrutinib were orally administered sequentially by forced administration. […] The major axis (mm) and minor axis (mm) of tumor were measured over time using an electronic digital caliper. […] Also, the body weights were measured over time using an automatic balance for small animals, and body weight change % was calculated according to calculation formula (5) shown below to study the influence of drug administration on the body weights. In addition, the results of the last body weight measurement were used in dose calculation. […] *: The tumor volume was calculated according to ½×[Major axis of tumor]×[Minor axis of tumor]×[Minor axis of tumor]. […] BWn: Body weight on day n BWs: Body weight on the start day of administration
# [3] = Compound A 25 mg/kg oral, day 18 after tumor inoculation (first administration)
# [4] = Compound A 25 mg/kg oral, day 20 after tumor inoculation
# [5] = Compound A 25 mg/kg oral, day 22 after tumor inoculation
# [6] = Compound A 25 mg/kg oral, day 25 after tumor inoculation
# [7] = Compound A 25 mg/kg oral, day 27 after tumor inoculation
# [8] = Compound A 25 mg/kg oral, day 29 after tumor inoculation
# [9] = Compound A 50 mg/kg oral, day 18 after tumor inoculation (first administration)
# [10] = Compound A 50 mg/kg oral, day 20 after tumor inoculation
# [11] = Compound A 50 mg/kg oral, day 22 after tumor inoculation
# [12] = Compound A 50 mg/kg oral, day 25 after tumor inoculation
# [13] = Compound A 50 mg/kg oral, day 27 after tumor inoculation
# [14] = Compound A 50 mg/kg oral, day 29 after tumor inoculation
# [15] = Ibrutinib 100 mg/kg oral, day 18 after tumor inoculation (first administration)
# [16] = Ibrutinib 100 mg/kg oral, day 20 after tumor inoculation
# [17] = Ibrutinib 100 mg/kg oral, day 22 after tumor inoculation
# [18] = Ibrutinib 100 mg/kg oral, day 25 after tumor inoculation
# [19] = Ibrutinib 100 mg/kg oral, day 27 after tumor inoculation
# [20] = Ibrutinib 100 mg/kg oral, day 29 after tumor inoculation
# [21] = Ibrutinib 200 mg/kg oral, day 18 after tumor inoculation (first administration)
# [22] = Ibrutinib 200 mg/kg oral, day 20 after tumor inoculation
# [23] = Ibrutinib 200 mg/kg oral, day 22 after tumor inoculation
# [24] = Ibrutinib 200 mg/kg oral, day 25 after tumor inoculation
# [25] = Ibrutinib 200 mg/kg oral, day 27 after tumor inoculation
# [26] = Ibrutinib 200 mg/kg oral, day 29 after tumor inoculation
compound,measurement,setting,value
"CC1(C)CCC2(CC1)N[C@@H](C(=O)N[C@@H]1CC[C@@H](C(N)=O)OC1)[C@H](c1ccnc(Cl)c1F)[C@]21C(=O)Nc2cc(Cl)ccc21.Cc1ccc(S(=O)(=O)O)cc1 [Compound A, (3′R,4′S,5′R)—N-[(3R,6S)-6-carbamoyltetrahydro-2H-pyran-3-yl]-6″-chloro-4′-(2-chloro-3-fluoropyridin-4-yl)-4,4-dimethyl-2″-oxo-1″,2″-dihydrodispiro[cyclohexane-1,2′-pyrrolidine-3′,3″-indole]-5′-carboxamide p-toluenesulfonate]",TGI (%),[1]; Compound A 25 mg/kg oral,45%
same,"Estimated tumor volume, average",[1]; [3],117 mm^3
same,"Estimated tumor volume, average",[1]; [4],135 mm^3
same,"Estimated tumor volume, average",[1]; [5],156 mm^3
same,"Estimated tumor volume, average",[1]; [6],201 mm^3
same,"Estimated tumor volume, average",[1]; [7],212 mm^3
same,"Estimated tumor volume, average",[1]; [8],282 mm^3
same,TGI (%),[1]; Compound A 50 mg/kg oral,58%
same,"Estimated tumor volume, average",[1]; [9],115 mm^3
same,"Estimated tumor volume, average",[1]; [10],118 mm^3
same,"Estimated tumor volume, average",[1]; [11],108 mm^3
same,"Estimated tumor volume, average",[1]; [12],143 mm^3
same,"Estimated tumor volume, average",[1]; [13],162 mm^3
same,"Estimated tumor volume, average",[1]; [14],216 mm^3
same,"Body weight change (%), average",[2]; [3],0.0%
same,"Body weight change (%), average",[2]; [4],2.1%
same,"Body weight change (%), average",[2]; [5],1.8%
same,"Body weight change (%), average",[2]; [6],1.6%
same,"Body weight change (%), average",[2]; [7],1.3%
same,"Body weight change (%), average",[2]; [8],0.1%
same,"Body weight change (%), average",[2]; [9],0.0%
same,"Body weight change (%), average",[2]; [10],−0.8%
same,"Body weight change (%), average",[2]; [11],−1.7%
same,"Body weight change (%), average",[2]; [12],−2.7%
same,"Body weight change (%), average",[2]; [13],−1.0%
same,"Body weight change (%), average",[2]; [14],−1.7%
"C=CC(=O)N1CCC[C@@H](n2nc(-c3ccc(Oc4ccccc4)cc3)c3c(N)ncnc32)C1 [Ibrutinib, (R)-1-(3-(4-amino-3-(4-phenoxyphenyl)-1H-pyrazolo[3,4-d]pyrimidin-1-yl)piperidin-1-yl)prop-2-en-1-one]",TGI (%),[1]; Ibrutinib 100 mg/kg oral,58%
same,"Estimated tumor volume, average",[1]; [15],115 mm^3
same,"Estimated tumor volume, average",[1]; [16],112 mm^3
same,"Estimated tumor volume, average",[1]; [17],127 mm^3
same,"Estimated tumor volume, average",[1]; [18],157 mm^3
same,"Estimated tumor volume, average",[1]; [19],185 mm^3
same,"Estimated tumor volume, average",[1]; [20],213 mm^3
same,TGI (%),[1]; Ibrutinib 200 mg/kg oral,67%
same,"Estimated tumor volume, average",[1]; [21],119 mm^3
same,"Estimated tumor volume, average",[1]; [22],120 mm^3
same,"Estimated tumor volume, average",[1]; [23],115 mm^3
same,"Estimated tumor volume, average",[1]; [24],149 mm^3
same,"Estimated tumor volume, average",[1]; [25],153 mm^3
same,"Estimated tumor volume, average",[1]; [26],166 mm^3
same,"Body weight change (%), average",[2]; [15],0.0%
same,"Body weight change (%), average",[2]; [16],−0.4%
same,"Body weight change (%), average",[2]; [17],−1.1%
same,"Body weight change (%), average",[2]; [18],−0.2%
same,"Body weight change (%), average",[2]; [19],0.8%
same,"Body weight change (%), average",[2]; [20],−0.1%
same,"Body weight change (%), average",[2]; [21],0.0%
same,"Body weight change (%), average",[2]; [22],−1.5%
same,"Body weight change (%), average",[2]; [23],−1.2%
same,"Body weight change (%), average",[2]; [24],0.2%
same,"Body weight change (%), average",[2]; [25],−0.4%
same,"Body weight change (%), average",[2]; [26],−1.6%
